Several values for one entry are separate records, joined by “and”; a condition that tells them apart may be missing. Identical values can stand only once.
What follows are compounds tested against human KMO (Homo sapiens, UniProt O15229) (assay: KMO MS Rapidfire assay (RapidFire high-throughput mass spectrometry, Method 1 or Method 2)).
Sequence of human KMO (O15229 whole entry): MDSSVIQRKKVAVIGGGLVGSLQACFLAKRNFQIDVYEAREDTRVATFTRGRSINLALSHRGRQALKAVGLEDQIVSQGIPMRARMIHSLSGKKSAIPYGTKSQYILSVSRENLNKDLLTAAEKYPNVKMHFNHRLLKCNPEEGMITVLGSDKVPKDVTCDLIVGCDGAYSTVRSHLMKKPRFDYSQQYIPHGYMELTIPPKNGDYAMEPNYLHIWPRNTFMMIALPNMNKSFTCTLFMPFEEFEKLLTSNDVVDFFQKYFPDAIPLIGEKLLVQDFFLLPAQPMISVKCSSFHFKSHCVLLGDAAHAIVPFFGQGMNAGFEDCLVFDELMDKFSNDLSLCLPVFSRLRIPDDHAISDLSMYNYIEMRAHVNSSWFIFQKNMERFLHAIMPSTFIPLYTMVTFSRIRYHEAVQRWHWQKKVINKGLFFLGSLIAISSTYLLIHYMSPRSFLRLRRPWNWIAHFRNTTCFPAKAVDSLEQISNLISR
Description: KMO inhibition can be determined by MS Rapidfire assay performed on the human cloned enzyme as described herein.
pFastbac1 GST-KMO was transposed into the baculovirus genome using the BAC-to-BAC technology (Invitrogen) and bacmid DNA was prepared and transfected into Spodoptera frugiperda (Sf9) cells using Cellfectin II (Invitrogen).
A P1 virus stock was generated from a single clone and used to infect 3×1.5 L cultures of Sf9 cells in 3 L Corning Fernbach flasks. The Sf9 cells were grown in Hyclone SFX media (Thermo Scientific) to about 3×10^6 cells/ml and were infected at a nominal multiplicity of infection of 3. Cells were harvested after 48 hours and disrupted by blending in 50 mM HEPES, pH 7.4, 1 mM EDTA buffer containing protease inhibitors. A low speed spin (400 g) was used to remove cell debris, followed by a high speed spin (75 000 g) to pellet the membranes. The membranes were purified in a discontinuous sucrose density gradient by re-suspending in 10% (w/v) sucrose and layering over 40% (w/v) sucrose, both in the above buffer. This was centrifuged at 150 000 g and the purified membranes were taken from the interface, collected by centrifugation at 100 000 g, resuspended in buffer and aliquoted for storage at −80° C.
100 nL DMSO was dispensed into columns 6 and 18 for high and low controls, respectively, with prior inactivation of the enzyme in column 18 by pre-dispense of 30 μL of 0.5% (v/v) TFA.
Conditions for the assay of human KMO using isolated KMO-membranes were 50 mM HEPES, pH 7.5, 2 mM DTT, 1 mM EDTA, 100 μM CHAPS, 200 μM NADPH, 10 μM Kynurenine and 8 μg/ml KMO-membranes in a total reaction volume of 10 μL.
Assays were performed by initially dispensing 5 μL of a 2× Enzyme solution (16 μg/ml KMO-membranes in 50 mM HEPES, pH 7.5, 2 mM DTT, 2 mM EDTA, 200 μM CHAPS) into plates containing 100 nL compounds and incubating for 10 min at ambient temperature. Reactions were initiated by addition of 5 μL of 2× Substrate solution (400 μM NADPH, 20 μM Kynurenine in 50 mM HEPES, pH 7.5, 2 mM DTT) and incubated for 2 h at room temperature before quenching the reaction with 30 μL of 0.5% (v/v) TFA. Plates were centrifuged at 2500 rpm for 10 min before analysis. All additions were made using a Multidrop Combi dispenser (Thermo Fisher Scientific).
Quenched assay plates were transferred to a high-throughput RapidFire200 integrated autosampler/solid-phase extraction (SPE) system (Agilent Technologies, Wakefield, Mass.). […] Analytes were then eluted into the mass spectrometer, in a 3 s elution cycle, using 80% (v/v) acetonitrile/water containing 0.1% (v/v) formic acid, and the cartridge was then equilibrated by washing with water containing 0.1% (v/v) formic acid for 500 ms. This gave a total cycle time of 7 s, enabling analysis of a 384-well plate in approximately 45 min.
Both Kyn and 3-HK were detected using a Sciex AP14000 triple quadrupole mass spectrometer (Applied Biosystems, Concord, Ontario, Canada), equipped with an electrospray interface and operated in positive ion mode. […] The mass spectrometer used an ESI voltage of 5500 V and a source temperature of 600° C., with a dwell time of 50 ms for each transition.
Individual MRM transitions were saved as text files and the extracted ion chromatograms were integrated and processed using the RapidFire® peak integration software (version 3.6).

Q: With CCC(Oc1cc2sc(=O)n(CCC(=O)O)c2cc1Cl)c1ncc(C)cn1 (single isomer, unassigned) [Example 5, 3-{5-chloro-6-[1-(5-methylpyrimidin-2-yl)propoxy]-2-oxo-2,3-dihydro-1,3-benzothiazol-3-yl}propanoic acid] as the compound, how does the IC50 read?
A: The IC50 was at most 0.01 µM.

Q: Which IC50 does the source give for CCC(Oc1cc2sc(=O)n(CCC(=O)O)c2cc1Cl)c1ccc(C)cn1 (single isomer, unassigned) [Example 8, 3-{5-chloro-6-[1-(5-methylpyridin-2-yl)propoxy]-2-oxo-2,3-dihydro-1,3-benzothiazol-3-yl}propanoic acid] here?
A: Its IC50 is at most 0.01 µM.

Q: For CC[C@@H](Oc1cc2sc(=O)n(CCC(=O)O)c2cc1Cl)c1ccc(Cl)cn1 (single isomer, unassigned) [Example 9, 3-{5-chloro-6-[1-(5-chloropyridin-2-yl)propoxy]-2-oxo-2,3-dihydro-1,3-benzothhiazol-3-yl}propanoic acid], which IC50 is on record?
A: Its IC50 is at most 0.01 µM.

Q: Which IC50 does the source give for CCC(Oc1cc2sc(=O)n(CCC(=O)O)c2cc1Cl)c1ncc(Cl)cn1 (single isomer, unassigned) [Example 11, 3-{5-chloro-6-[1-(5-chloropyrimidin-2-yl)propoxy]-2-oxo-2,3-dihydro-1,3-benzothiazol-3-yl}propanoic acid] here?
A: Its IC50 is at most 0.01 µM.

Q: Which IC50 does the source give for CCC(Oc1cc2sc(=O)n(CCC(=O)O)c2cc1Cl)c1cccnn1 (single isomer, unassigned) [Example 14, 3-{5-chloro-2-oxo-6-[1-(pyridazin-3-yl)propoxy]-2,3-dihydro-1,3-benzothiazol-3-yl}propanoic acid] here?
A: The IC50 was at most 0.01 µM.

Q: For Cc1ccc(C(C)Oc2cc3sc(=O)n(CCC(=O)O)c3cc2Cl)nn1 (single isomer, unassigned) [Example 16, 3-{5-chloro-6-[1-(6-methylpyridazin-3-yl)ethoxy]-2-oxo-2,3-dihydro-1,3-benzothiazol-3-yl}propanoic acid], which IC50 is on record?
A: The IC50 was at most 0.01 µM.

Q: For Cc1cnc(C(C)Oc2cc3sc(=O)n(CCC(=O)O)c3cc2Cl)nc1 (single isomer, unassigned) [Example 18, 3-{5-chloro-6-[1-(5-methylpyrimidin-2-yl)ethoxy]-2-oxo-2,3-dihydro-1,3-benzothiazol-3-yl}propanoic acid], which IC50 is on record?
A: The IC50 was at most 0.01 µM.

Q: Which IC50 does the source give for CCC(Oc1cc2sc(=O)n(CCC(=O)O)c2cc1Cl)c1ccccn1 (single isomer, unassigned) [Example 19, 3-{5-chloro-2-oxo-6-[1-(pyridin-2-yl)propoxy]-2,3-dihydro-1,3-benzothiazol-3-yl}propanoic acid] here?
A: Its IC50 is at most 0.01 µM.

Q: Which IC50 does the source give for CC(Oc1cc2sc(=O)n(CCC(=O)O)c2cc1Cl)c1ncc(Cl)cn1 (single isomer, unassigned) [Example 24, 3-{5-chloro-6-[1-(5-chloropyrimidin-2-yl)ethoxy]-2-oxo-2,3-dihydro-1,3-benzothiazol-3-yl}propanoic acid] here?
A: The IC50 was at most 0.01 µM.

Q: Which IC50 does the source give for CCc1ccc(C(C)Oc2cc3sc(=O)n(CCC(=O)O)c3cc2Cl)nc1 (single isomer, unassigned) [Example 25, 3-{5-chloro-6-[1-(5-ethylpyridin-2-yl)ethoxy]-2-oxo-2,3-dihydro-1,3-benzothiazol-3-yl}propanoic acid] here?
A: Its IC50 is at most 0.01 µM.

Q: For CCC(Oc1cc2sc(=O)n(CCC(=O)O)c2cc1Cl)c1ncccn1 (single isomer, unassigned) [Example 29, 3-{5-chloro-2-oxo-6-[1-(pyrimidin-2-yl)propoxy]-2,3-dihydro-1,3-benzothiazol-3-yl}propanoic acid], which IC50 is on record?
A: The IC50 was at most 0.01 µM.

Q: CCC(Oc1cc2sc(=O)n(CCC(=O)O)c2cc1Cl)c1ccc(C)nn1 (single isomer, unassigned) [Example 32, 3-{5-chloro-6-[1-(6-methylpyridazin-3-yl)propoxy]-2-oxo-2,3-dihydro-1,3-benzothiazol-3-yl}propanoic acid] was tested. Which IC50 did it give?
A: The IC50 was at most 0.01 µM.

Q: How did the IC50 turn out when C[C@@H](Oc1cc2sc(=O)n(CCC(=O)O)c2cc1Cl)c1ccc(Cl)cn1 [Example 1, 3-(5-chloro-6-[(R)-1-(5-chloropyridin-2-yl)ethoxy]-2-oxobenzo[d]thiazol-3(2H)-yl)propanoic acid] was run?
A: The IC50 was ≤ 0.01 µM and 0.00126 µM.

Q: Which IC50 does the source give for Cc1cnc(COc2cc3sc(=O)n(CCC(=O)O)c3cc2Cl)nc1 [Example 4, 3-{5-chloro-6-[(5-methylpyrimidin-2-yl)methoxy]-2-oxo-2,3-dihydro-1,3-benzothiazol-3-yl}propanoic acid] here?
A: Its IC50 is at most 0.01 µM.

Q: O=C(O)CCn1c(=O)sc2cc(OCc3ccc(Cl)cn3)c(Cl)cc21 [Example 21, 3-{5-chloro-6-[(5-chloropyridin-2-yl)methoxy]-2-oxo-2,3-dihydro-1,3-benzothiazol-3-yl}propanoic acid] was tested. Which IC50 did it give?
A: The IC50 was at most 0.01 µM.

Q: How did the IC50 turn out when Cc1ccc(COc2cc3sc(=O)n(CCC(=O)O)c3cc2Cl)nn1 [Example 22, 3-{5-chloro-6-[(6-methylpyridazin-3-yl)methoxy]-2-oxo-2,3-dihydro-1,3-benzothiazol-3-yl}propanoic acid] was run?
A: Its IC50 is at most 0.01 µM.

Q: With O=C(O)CCn1c(=O)sc2cc(OCc3ncc(Cl)cn3)c(Cl)cc21 [Example 27, 3-{5-chloro-6-[(5-chloropyrimidin-2-yl)methoxy]-2-oxo-2,3-dihydro-1,3-benzothiazol-3-yl}propanoic acid] as the compound, how does the IC50 read?
A: The IC50 was at most 0.01 µM.

Q: Which IC50 does the source give for Cc1ccc(COc2cc3sc(=O)n(CCC(=O)O)c3cc2Cl)nc1 [Example 30, 3-{5-chloro-6-[(5-methylpyridin-2-yl)methoxy]-2-oxo-2,3-dihydro-1,3-benzothiazol-3-yl}propanoic acid] here?
A: Its IC50 is at most 0.01 µM.

Q: Which IC50 does the source give for Cc1ccc([C@@H](C)Oc2cc3sc(=O)n(CCC(=O)O)c3cc2Cl)nc1 [Example 33, 3-{5-chloro-6-[(1R)-1-(5-methylpyridin-2-yl)ethoxy]-2-oxo-2,3-dihydro-1,3-benzothiazol-3-yl}propanoic acid] here?
A: Its IC50 is at most 0.01 µM.

Source: US20190100517A1, “COMPOUNDS” (GlaxoSmithKline Intellectual Property Development Limited, priority 2015, published 2019)
